Assays:
[1] = tested on: PANC-1; assay: Antiproliferative activity against human PANC1 cells at 10 uM incubated for 48 hrs by MTT assay relative to control; assay type: functional
[2] = tested on: MIA PaCa-2; assay: Antiproliferative activity against human MIAPaCa2 cells at 10 uM incubated for 48 hrs by MTT assay relative to control; assay type: functional
[3] = tested on: BXPC-3; assay: Antiproliferative activity against human BxPC3 cells at 10 uM incubated for 48 hrs by MTT assay relative to control; assay type: functional
[4] = target: T1, Aurora kinase A (Homo sapiens, UniProt O14965); assay: Inhibition of aurora A (unknown origin)
T1 sequence (O14965 whole entry): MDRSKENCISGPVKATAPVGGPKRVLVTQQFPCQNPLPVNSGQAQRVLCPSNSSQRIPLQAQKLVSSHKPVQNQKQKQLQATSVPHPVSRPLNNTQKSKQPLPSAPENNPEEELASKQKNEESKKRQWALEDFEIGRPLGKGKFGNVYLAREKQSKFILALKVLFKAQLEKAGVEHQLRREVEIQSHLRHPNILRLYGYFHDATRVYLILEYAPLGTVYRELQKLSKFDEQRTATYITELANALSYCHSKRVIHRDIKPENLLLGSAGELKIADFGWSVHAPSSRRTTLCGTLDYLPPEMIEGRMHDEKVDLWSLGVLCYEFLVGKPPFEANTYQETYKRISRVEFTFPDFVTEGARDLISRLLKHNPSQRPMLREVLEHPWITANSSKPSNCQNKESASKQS

[5] = target: RAF proto-oncogene serine/threonine-protein kinase (Homo sapiens, UniProt P04049); assay: Inhibition of c-RAF (unknown origin)
Sequence of RAF proto-oncogene serine/threonine-protein kinase (P04049 whole entry): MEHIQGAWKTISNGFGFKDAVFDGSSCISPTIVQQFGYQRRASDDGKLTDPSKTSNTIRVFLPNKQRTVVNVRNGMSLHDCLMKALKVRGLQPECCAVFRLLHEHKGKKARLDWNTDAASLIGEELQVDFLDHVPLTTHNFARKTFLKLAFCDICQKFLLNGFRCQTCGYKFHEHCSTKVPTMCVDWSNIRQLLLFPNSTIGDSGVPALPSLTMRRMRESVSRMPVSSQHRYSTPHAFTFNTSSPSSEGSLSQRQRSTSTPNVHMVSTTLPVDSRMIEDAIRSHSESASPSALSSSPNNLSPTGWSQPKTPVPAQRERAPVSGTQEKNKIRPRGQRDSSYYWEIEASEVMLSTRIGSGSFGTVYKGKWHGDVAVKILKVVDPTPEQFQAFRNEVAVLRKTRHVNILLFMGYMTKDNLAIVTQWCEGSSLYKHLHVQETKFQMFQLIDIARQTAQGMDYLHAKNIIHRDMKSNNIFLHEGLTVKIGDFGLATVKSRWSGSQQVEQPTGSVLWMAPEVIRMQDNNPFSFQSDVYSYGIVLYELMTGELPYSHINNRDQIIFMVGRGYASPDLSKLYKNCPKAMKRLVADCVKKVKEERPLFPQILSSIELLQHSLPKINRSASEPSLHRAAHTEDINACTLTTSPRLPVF

IC50 [4] [nM] | IC50 [5] [nM] | SMILES | Activity [1] [%] | Activity [2] [%] | Activity [3] [%]
– | – | CN(C)S(=O)(=O)c1cc(-c2cnc3[nH]cc(-c4ccncc4)c3c2)cnc1N | 30 | <20 | <20
15 | 116 | Cc1cn(-c2cc(C(=O)Nc3cccc(Nc4ccc5c(c4)NC(=O)/C5=C\c4ccc[nH]4)c3)cc(C(F)(F)F)c2)cn1 | – | – | –
